Data on 6 molecules can be found in paper PMC2912288 (International journal of pharmaceutics, 2010).

For series [1] the following is noted: ref Porter and Kaplan, 2009; cited from earlier work.
The target in series [2] is T1, human apical sodium-dependent bile acid transporter (ASBT) (Homo sapiens, UniProt Q12908).
T1 sequence (Q12908 1-348): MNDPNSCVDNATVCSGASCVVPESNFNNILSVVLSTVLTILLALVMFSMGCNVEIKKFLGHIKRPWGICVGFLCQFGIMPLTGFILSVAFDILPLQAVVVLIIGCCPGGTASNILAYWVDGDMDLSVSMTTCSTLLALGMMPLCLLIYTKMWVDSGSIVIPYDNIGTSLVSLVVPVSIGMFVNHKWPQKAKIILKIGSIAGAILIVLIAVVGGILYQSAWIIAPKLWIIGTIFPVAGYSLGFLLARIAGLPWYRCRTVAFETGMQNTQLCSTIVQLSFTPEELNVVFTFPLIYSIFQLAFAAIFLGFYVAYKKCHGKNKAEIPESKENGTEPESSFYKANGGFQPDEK
Briefly: Inhibition of taurocholate uptake by prodrugs in ASBT-MDCK monolayers. It counts as cell-based. The following applies: taurocholate uptake into ASBT-MDCK monolayers, 10 min.

The conditions of series [3]: of the drug moiety; source not stated; cited from earlier work.
Series [4] addresses Pept1. The following applies: CHO-PepT1; ref Han et al., 1998; cited from earlier work.
The conditions of series [5]: ref Burnette and de, 1994; cited from earlier work.
Series [6] deals with Pept1. The following applies: Xenopus laevis oocytes; ref Balimane et al., 1998; cited from earlier work.
The target of series [7] is T1, human apical sodium-dependent bile acid transporter (ASBT). Description: Uptake of prodrug into ASBT-MDCK monolayers.
Setting [8] is: prodrug uptake into ASBT-MDCK, 1–500 μM, 10 min, 37°C, mean (±SEM) of three measurements.

“Also recorded” adds a separate entry of the source. Where two headings read alike, the source gives them in different places.

The term half-life denotes the time needed for the level to fall by half in the phase considered. Usually Log P stands for the decadic logarithm of the partition coefficient of the neutral form, usually between octanol and water. Take `O=C(O)c1cccnc1` [niacin, nicotinic acid]: the half-life in series [1] is 20 to 45 min. Besides, the “ASBT inhibition (result in words)” value in series [2] is reported as “Neither ketoprofen nor niacin was ASBT inhibitor; also recorded: not reduced”. In addition, in series [3], the “Log P” value is on record as 0.25.
What is called Ki is the equilibrium dissociation constant of an inhibitor or competing ligand from its target. As for `CC(C)[C@H](N)C(=O)OCCOCn1cnc2c(=O)[nH]c(N)nc21` [valacyclovir], the inhibitory constant (Ki) at Pept1 [4] is 1100 µM; on Pept1 [6], 4080 µM. Besides, the “increase of acyclovir bioavailability” value in series [5] is listed as 3 fold.
Consider `C[C@H](CCC(=O)NCCS(=O)(=O)O)[C@H]1CC[C@H]2[C@@H]3[C@H](O)C[C@@H]4C[C@H](O)CC[C@]4(C)[C@H]3C[C@H](O)[C@]12C` [taurocholate, Taurocholic acid], for which the Kt in series [7] (taurocholate, obtained from a pooled data analysis approach) worked out at 5.03 µM.
Consider CDCA-lysine-niacin, for which the “ASBT's capacity to transport, relative to that of taurocholate” value in series [7] (from normJmax) was “about 9%”. In addition, in series [7] (setting [8]), the Kt was 8.22 (±3.63) μM.
Turning to CDCA-lysine-ketoprofen, the “transport capacity relative to the capacity for taurocholate” value in series [7] (from normJmax) came out at 1.87 fold. The Kt in series [7] (setting [8]) is on record as 50.8 (±23.2) μM.
As to `CC(C(=O)O)c1cccc(C(=O)c2ccccc2)c1` (stereo not drawn) [ketoprofen, Ketoprofen], the “ASBT inhibition (result in words)” value in series [2] is “Neither ketoprofen nor niacin was ASBT inhibitor; also recorded: not reduced”.
